Experimental findings from PMC8657793, “Synthesis, In Vitro and In Silico Anticancer Activity of New 4-Methylbenzamide Derivatives Containing 2,6-Substituted Purines as Potential Protein Kinases Inhibitors” (International Journal of Molecular Sciences, 2021) are described below.

One series deals with T1, HER4 (Homo sapiens, UniProt Q15303).
T1 construct: purchased Promega
Briefly: Kinase Selectivity Profiling System TK-1 / ADP-Glo, HER4. The series is classed as biochemical. As for the experimental part:
(§1) At the end, 10 μL of kinase detection reagent was added into the well and incubated for 30 min to produce a luminescence signal.
(In general: In ADP-Glo the light output rises with the ADP produced.)

Another series concerns the target T2, IGF1R (Homo sapiens, UniProt P08069).
T2 construct: purchased Promega
Briefly: Kinase Selectivity Profiling System TK-1 / ADP-Glo, IGF1R. The series is classed as biochemical. The method, then:
as §1

The target in a further series is T3, PDGFRβ (Homo sapiens, UniProt P09619).
T3 construct: purchased Promega
T3 sequence (P09619 33-1106): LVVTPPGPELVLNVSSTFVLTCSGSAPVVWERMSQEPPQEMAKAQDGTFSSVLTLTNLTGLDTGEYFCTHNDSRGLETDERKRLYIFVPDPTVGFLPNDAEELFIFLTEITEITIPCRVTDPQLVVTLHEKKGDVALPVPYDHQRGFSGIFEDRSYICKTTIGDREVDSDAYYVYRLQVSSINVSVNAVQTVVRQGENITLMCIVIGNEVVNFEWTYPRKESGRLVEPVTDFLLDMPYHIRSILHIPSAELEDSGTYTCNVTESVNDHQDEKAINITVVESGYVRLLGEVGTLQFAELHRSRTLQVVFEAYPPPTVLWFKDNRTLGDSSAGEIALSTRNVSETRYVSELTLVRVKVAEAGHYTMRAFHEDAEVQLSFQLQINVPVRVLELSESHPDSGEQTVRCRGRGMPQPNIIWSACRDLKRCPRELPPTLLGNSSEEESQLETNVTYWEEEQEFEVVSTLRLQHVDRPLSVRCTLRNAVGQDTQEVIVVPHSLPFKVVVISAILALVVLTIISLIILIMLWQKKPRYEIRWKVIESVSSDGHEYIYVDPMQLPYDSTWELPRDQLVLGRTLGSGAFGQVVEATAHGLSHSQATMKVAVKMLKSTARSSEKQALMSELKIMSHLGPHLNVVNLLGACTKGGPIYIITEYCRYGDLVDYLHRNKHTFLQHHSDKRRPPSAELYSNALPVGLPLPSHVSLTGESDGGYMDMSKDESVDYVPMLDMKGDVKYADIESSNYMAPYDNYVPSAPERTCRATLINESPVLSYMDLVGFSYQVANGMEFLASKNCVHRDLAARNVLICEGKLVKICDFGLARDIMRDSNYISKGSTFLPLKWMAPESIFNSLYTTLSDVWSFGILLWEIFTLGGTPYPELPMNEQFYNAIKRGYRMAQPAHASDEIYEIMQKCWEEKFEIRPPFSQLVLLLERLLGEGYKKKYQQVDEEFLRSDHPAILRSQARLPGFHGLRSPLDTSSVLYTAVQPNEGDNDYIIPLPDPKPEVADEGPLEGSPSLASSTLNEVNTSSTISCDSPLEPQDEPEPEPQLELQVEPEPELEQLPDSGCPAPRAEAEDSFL
Briefly: Kinase Selectivity Profiling System TK-1 / ADP-Glo, PDGFRβ. The series is classed as biochemical. As for the experimental part:
as §1

The target in the next series is T4, EGFR (Homo sapiens, UniProt P00533).
T4 construct: purchased Promega
In words: Kinase Selectivity Profiling System TK-1 / ADP-Glo, EGFR. The series is classed as biochemical. As for the experimental part: as §1

A further series deals with T5, PDGFRα (Homo sapiens, UniProt P16234).
T5 construct: purchased Promega
T5 sequence (P16234 24-1089): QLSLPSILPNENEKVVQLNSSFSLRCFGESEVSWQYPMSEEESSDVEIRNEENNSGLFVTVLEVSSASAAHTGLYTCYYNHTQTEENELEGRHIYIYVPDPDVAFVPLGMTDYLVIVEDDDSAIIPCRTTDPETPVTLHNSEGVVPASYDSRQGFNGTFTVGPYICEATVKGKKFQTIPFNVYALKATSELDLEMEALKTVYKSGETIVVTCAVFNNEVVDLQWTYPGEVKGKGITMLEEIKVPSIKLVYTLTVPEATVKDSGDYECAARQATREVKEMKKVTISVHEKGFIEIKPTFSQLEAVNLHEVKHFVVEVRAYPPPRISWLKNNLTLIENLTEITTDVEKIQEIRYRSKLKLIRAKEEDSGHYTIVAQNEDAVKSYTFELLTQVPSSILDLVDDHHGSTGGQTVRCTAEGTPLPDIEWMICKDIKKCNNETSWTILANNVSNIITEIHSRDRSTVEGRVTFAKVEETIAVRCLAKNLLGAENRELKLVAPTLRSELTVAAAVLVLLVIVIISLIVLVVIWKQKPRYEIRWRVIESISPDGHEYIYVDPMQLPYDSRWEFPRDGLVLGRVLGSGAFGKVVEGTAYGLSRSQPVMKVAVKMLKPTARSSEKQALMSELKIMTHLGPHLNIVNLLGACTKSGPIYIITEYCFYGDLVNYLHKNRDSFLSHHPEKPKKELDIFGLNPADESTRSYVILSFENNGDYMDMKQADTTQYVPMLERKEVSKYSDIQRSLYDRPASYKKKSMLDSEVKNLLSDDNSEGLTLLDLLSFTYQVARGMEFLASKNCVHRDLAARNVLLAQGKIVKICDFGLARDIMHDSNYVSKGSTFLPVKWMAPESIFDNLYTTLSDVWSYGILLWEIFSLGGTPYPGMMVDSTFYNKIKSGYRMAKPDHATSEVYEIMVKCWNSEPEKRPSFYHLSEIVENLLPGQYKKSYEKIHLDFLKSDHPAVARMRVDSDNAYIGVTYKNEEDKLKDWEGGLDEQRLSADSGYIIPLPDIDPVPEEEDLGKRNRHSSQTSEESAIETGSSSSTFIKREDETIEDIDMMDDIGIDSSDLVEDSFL
Briefly: Kinase Selectivity Profiling System TK-1 / ADP-Glo, PDGFRα. Type of series: biochemical. An excerpt:
Considering the presence of a purine ring in the compounds under study, type 1 binding to protein kinases could be expected. We investigated the kinase selectivity of targeted compounds 7–16 against eight receptor tyrosine kinases including EGFR, HER2 and HER4 (epidermal growth factor receptors), IGF1R (insulin-like growth factor 1 receptor), InsR (insulin receptor), KDR (vascular endothelial growth factor receptor 2—VEGFR-2), and PDGFRα and PDGFRβ (platelet-derived growth factor receptors). The assay was performed using the Kinase Selectivity Profiling System TK-1 (Promega, Madison, WI, USA) and ADP-Glo™ Kinase assay kit (Promega, Madison, WI, USA). Kinase activity was measured by quantifying the […] following a kinase reaction. Enzymatic activity inhibition percentage caused by studied compounds was evaluated at the single concentration of 1 μM.
The Abl1 inhibitory activity assay was performed using Abl1 Kinase Enzyme System (Promega, Madison, WI, USA) and ADP-Glo™ Kinase assay kit (Promega, Madison, WI, USA) according to the Technical Manual. The general procedure was as follows: kinase (2.5 ng/reaction) was incubated with substrate (1 μg), compound (0.5 and 10µM) and ATP (50 μM) in a commercial buffer solution with a reaction volume of 5 μL. In every experiment, no-enzyme and no-compound control reactions were included to represent background luminescence (0% activity) and uninhibited kinase activity (100% activity), respectively. The assay 384-well plate was incubated at room temperature for 1 h. Afterwards, 5μL of ADP-Glo reagent was added into each well to stop the reaction and consume the […] within 40 min. At the end, 10 μL of kinase detection reagent was added into the well and incubated for 30 min to produce a luminescence signal. Kinase activity assays were performed in triplicate at each inhibitor concentration. The luminescence was measured with the help of a Tecan Infinite M200 Plate Reader. The luminescence data were analyzed using the computer software, Magellan™. Percent kinase activity (KA) was calculated by subtracting the average no-enzyme control luminescence values from all kinase-containing reactions with or without compound, then converting these net luminescence values to percent activity based on the no-compound control reactions representing 100% kinase activity. Inhibition (I, %) was calculated as 100%-KA.
The single-dose screening of kinase selectivity was performed using Kinase Selectivity Profiling System TK-1 (Promega, Madison, WI, USA) and ADP-Glo™ Kinase assay kit (Promega, Madison, WI, USA) according to Technical Manual. Kinase Selectivity Profiling System TK-1 includes a set of kinases from the tyrosine kinase family (EGFR, HER2, HER4, IGF1R, InsR, KDR, PDGFα, PDGFβ) in 8-tube strip format. The general procedure was as follow: kinase working stock (2 µL/reaction) was incubated with ATP/substrate working stock (1 µL) and compound (1 µM) in a commercial buffer solution with a reaction volume of 5 μL. The reaction conditions and inhibition (%) calculation were the same as in Section 3.3.1. Kinase activity assays were performed in duplicate at each inhibitor.

Another series has as its target T6, KDR (VEGFR-2) (Homo sapiens, UniProt P35968).
T6 construct: purchased Promega
In words: Kinase Selectivity Profiling System TK-1 / ADP-Glo, KDR. Type of series: biochemical. As for the experimental part: as §1

The next series deals with T7, HER2 (Homo sapiens, UniProt P04626).
T7 construct: purchased Promega
T7 sequence (P04626 23-1255): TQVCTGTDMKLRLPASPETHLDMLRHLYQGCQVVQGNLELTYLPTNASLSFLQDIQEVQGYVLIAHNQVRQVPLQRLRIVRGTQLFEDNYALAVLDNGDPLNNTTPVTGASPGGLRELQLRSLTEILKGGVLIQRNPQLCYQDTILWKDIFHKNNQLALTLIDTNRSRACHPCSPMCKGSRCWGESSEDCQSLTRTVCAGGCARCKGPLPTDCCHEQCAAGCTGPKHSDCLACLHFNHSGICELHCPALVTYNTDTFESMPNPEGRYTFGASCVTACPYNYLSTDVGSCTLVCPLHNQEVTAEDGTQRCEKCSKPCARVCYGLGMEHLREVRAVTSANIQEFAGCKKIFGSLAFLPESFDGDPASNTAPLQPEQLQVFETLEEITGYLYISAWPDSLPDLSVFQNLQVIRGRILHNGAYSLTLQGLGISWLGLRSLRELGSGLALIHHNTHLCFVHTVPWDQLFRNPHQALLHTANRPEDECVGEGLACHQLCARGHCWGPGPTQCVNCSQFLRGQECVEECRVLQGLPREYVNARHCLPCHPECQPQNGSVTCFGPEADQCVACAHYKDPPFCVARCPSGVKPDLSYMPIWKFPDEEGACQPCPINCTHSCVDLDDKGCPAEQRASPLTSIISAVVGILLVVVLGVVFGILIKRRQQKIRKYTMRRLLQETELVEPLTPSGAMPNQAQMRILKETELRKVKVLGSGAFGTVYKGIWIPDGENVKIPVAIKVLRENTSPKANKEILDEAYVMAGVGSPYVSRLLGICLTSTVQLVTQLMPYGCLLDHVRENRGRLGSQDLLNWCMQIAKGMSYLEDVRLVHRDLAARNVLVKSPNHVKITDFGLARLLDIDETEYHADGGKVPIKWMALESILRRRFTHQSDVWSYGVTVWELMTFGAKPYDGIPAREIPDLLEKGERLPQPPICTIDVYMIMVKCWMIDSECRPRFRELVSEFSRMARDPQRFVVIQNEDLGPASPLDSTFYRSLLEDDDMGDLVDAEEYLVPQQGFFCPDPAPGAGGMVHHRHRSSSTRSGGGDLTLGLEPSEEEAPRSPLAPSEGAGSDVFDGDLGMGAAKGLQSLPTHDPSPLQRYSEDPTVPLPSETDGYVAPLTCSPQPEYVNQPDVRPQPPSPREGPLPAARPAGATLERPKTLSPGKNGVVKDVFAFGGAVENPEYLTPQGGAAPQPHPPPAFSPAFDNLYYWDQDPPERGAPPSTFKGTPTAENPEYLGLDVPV
Briefly: Kinase Selectivity Profiling System TK-1 / ADP-Glo, HER2. The series is classed as biochemical. The method, then:
as §1

The next series has as its target T8, InsR (Homo sapiens, UniProt P06213).
T8 construct: purchased Promega
Briefly: Kinase Selectivity Profiling System TK-1 / ADP-Glo, InsR. The series is classed as biochemical. The method, then: as §1

The target in another series is T9, Bcr–Abl1 kinase (Homo sapiens, UniProt P00519).
T9 construct: purchased Promega
Briefly: Abl1 Kinase Enzyme System / ADP-Glo kinase assay. The series is classed as biochemical. Particulars: ATP 50 μM; for inhibition at 0.5 µM: 0.5 µM compound; for inhibition at 10 µM: 10 µM compound. The method, then: as §1

The test system of series [1] is RPMI 1788 (B lymphocyte, normal human lymphoblastoid cells). In words: MTT assay on normal cells RPMI 1788. Type of series: cell-based. The method, then: To determine the selectivity of the synthesized compounds 7–16 toward various cancer cells and normal human cells, the anti-proliferative activity against K562 (chronic myelogenous leukemia), HL-60 (promyelocytic leukemia), MCF-7 (breast adenocarcinoma), HeLa (cervix carcinoma), HepG2 (human liver cancer), A549 (lung carcinoma), OKP-GS (renal cell carcinoma), and normal cells RPMI 1788 (B lymphocyte, the human cell line) was investigated.
Each in vitro experiment was performed at least in triplicate and the standard deviation of absorbance was less than 10% of the mean. For the in vitro assays, a stock solution (1% DMSO in the appropriate buffer with the tested compound diluted under sonication) was prepared from which several dilutions were made with the appropriate buffer.
Human cell lines were obtained from the Institute of Cytology, Russian Academy of Sciences. The cell lines studied were maintained in RPMI 1640 medium (AppliChem, Darmstadt, Germany) supplemented with 20% (HL-60, RPMI 1788) fetal calf serum (HyClone, Cramlington, UK), in DMEM (A 549) and Eagle’s MEM (AppliChem) (MCF7, HeLa) with 10% fetal calf serum (HyClone). Cells were cultivated at 37 °C in a humidified atmosphere of 5% CO2. Cellular sensitivities to synthesized compounds and standards were measured with the MTT assay. Cells were plated in triplicate in 96-well plates (10^5 cells/well for suspended cell cultures and 5 × 10^3 cells/well for monolayer cultures); on the same day (suspended cell cultures) or on the following day (monolayer cultures), compounds were added at the appropriate dilutions. […] The reference drugs were imatinib, sorafenib and nilotinib. Plates were incubated under standard conditions for 48 h. Thereafter, 10 μL MTT (Sigma) in phosphate-buffered saline (5 mg/mL) was added. The plates were incubated for an additional 4 h and 150 μL dimethylsulphoxide (DMSO) was added to dissolve the formazan crystals. The optical density was read on a HALO MPR-95 Microplate Reader (Dynamica Scientific Ltd., Melbourne, Victoria, Australia) at 570 nm. The antiproliferative effects were taken as degrees of inhibition of tumor cells (%). The average of three parallel measurements was calculated for each concentration of test compound. The degree of cell growth suppression was plotted as a function of the logarithm of the concentration. The half maximal inhibitory concentration (IC50) was determined graphically for active compounds.
In general terms: Tetrazolium dyes change colour on reduction, which living cells bring about.

Series [2] has as its system HL-60 (promyelocytic leukemia). Briefly: MTT anti-proliferative assay, HL-60. The series is classed as cell-based. Particulars: Homo sapiens, 48 h. The method, then: For the in vitro assays, a stock solution (1% DMSO in the appropriate buffer with the tested compound diluted under sonication) was prepared from which several dilutions were made with the appropriate buffer.
Human cell lines were obtained from the Institute of Cytology, Russian Academy of Sciences. […] Plates were incubated under standard conditions for 48 h.

T1 sequence (Q15303 26-1308): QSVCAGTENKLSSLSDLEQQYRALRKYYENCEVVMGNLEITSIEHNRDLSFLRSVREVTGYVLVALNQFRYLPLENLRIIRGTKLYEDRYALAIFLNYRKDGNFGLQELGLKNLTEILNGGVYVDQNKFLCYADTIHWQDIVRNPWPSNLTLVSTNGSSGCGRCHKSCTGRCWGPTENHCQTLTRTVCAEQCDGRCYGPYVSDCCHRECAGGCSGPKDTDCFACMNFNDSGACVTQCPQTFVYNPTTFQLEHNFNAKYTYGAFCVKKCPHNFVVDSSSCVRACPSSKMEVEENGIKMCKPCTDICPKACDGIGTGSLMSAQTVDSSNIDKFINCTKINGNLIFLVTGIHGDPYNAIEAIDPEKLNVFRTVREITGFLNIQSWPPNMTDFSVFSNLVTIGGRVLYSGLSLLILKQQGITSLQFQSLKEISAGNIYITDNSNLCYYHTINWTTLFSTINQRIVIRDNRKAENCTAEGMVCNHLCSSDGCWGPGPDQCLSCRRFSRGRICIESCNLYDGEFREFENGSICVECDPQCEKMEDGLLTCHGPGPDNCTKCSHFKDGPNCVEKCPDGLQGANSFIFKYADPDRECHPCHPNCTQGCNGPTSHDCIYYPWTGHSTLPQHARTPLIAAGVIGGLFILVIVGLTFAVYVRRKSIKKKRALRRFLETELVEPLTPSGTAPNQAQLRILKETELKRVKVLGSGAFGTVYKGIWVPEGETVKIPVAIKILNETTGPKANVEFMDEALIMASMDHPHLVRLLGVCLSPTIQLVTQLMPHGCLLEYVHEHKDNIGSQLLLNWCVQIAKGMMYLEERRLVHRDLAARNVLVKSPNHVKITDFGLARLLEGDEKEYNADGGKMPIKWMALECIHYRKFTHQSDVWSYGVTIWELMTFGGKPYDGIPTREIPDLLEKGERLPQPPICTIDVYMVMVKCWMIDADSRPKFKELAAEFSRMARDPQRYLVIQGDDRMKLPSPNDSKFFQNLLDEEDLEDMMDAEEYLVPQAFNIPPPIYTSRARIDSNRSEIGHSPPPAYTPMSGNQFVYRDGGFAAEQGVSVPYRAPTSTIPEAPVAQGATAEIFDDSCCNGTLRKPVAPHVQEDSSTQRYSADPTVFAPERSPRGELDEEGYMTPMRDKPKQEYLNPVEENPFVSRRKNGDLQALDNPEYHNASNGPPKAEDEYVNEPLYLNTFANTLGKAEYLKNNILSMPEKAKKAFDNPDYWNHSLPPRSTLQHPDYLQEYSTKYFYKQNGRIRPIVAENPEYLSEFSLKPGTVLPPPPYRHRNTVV

With `Nc1nc(F)nc2c1ncn2Cc1ccc(C(=O)Nc2cccc(C(F)(F)F)c2)cc1` [Compound 8, 4-((6-Amino-2-fluoro-9H-purin-9-yl)methyl)-N-(3-(trifluoromethyl)phenyl)benzamide], the melting point (as a rule, the temperature, or range, at which the solid turns liquid) was in the range of 309 to 311 °C. The inhibition – broadly, how much of the control response was suppressed – at 1 µM at HER4 came out at 23%. On IGF1R, this compound registered an inhibition at 1 µM of 5%. On PDGFRβ, this compound showed an inhibition at 1 µM of 32%. Besides, the inhibition at 1 µM against EGFR was 15%. Moreover, on PDGFRα, the inhibition at 1 µM stood at 13%. Testing at 1 µM against KDR (VEGFR-2) gave an inhibition of 14%. Moreover, at HER2, the % Inhibition (in general, the percentage by which the read-out fell short of the control) at 1 µM, HER2 was determined as 26% and the inhibition at 1 µM fell in the range of 22 to 26%. At InsR, this compound had an inhibition at 1 µM of 0%. On Bcr–Abl1 kinase, this compound had an inhibition at 0.5 µM of 23% and an inhibition at 10 µM of 34%. The same compound gave an inhibition at 100 µM in series [1] of 33.5%. For the same compound, the IC50 (in general, the concentration that gives 50% inhibition) in series [2] was greater than 50 µM.

In the case of `Cc1ccc(NC(=O)c2ccc(CN3CCN(C)CC3)cc2)cc1Nc1nccc(-c2cccnc2)n1` [Imatinib, imatinib, reference compound], in series [1], the inhibition at 100 µM was 99%.

Consider `Cc1cn(-c2cc(NC(=O)c3ccc(Cn4cnc5c(N)nc(F)nc54)cc3)cc(C(F)(F)F)c2)cn1` [Compound 11, 4-((6-Amino-2-fluoro-9H-purin-9-yl)methyl)-N-(3-(4-methyl-1H-imidazol-1-yl)-5-(trifluoromethyl)phenyl)benzamide], for which the melting point fell in the range of 230 to 232 °C. This compound showed an inhibition at 1 µM on HER4 of 0%. Besides, on IGF1R, testing at 1 µM gave an inhibition of 0%. 1 µM produced 0% inhibition against PDGFRβ. The compound further had an inhibition at 1 µM at EGFR of 14%. This compound displayed an inhibition at 1 µM against PDGFRα of 4%. Moreover, on KDR (VEGFR-2), 1 µM produced 12% inhibition. Moreover, at 1 µM the inhibition on HER2 was 0%. For the same compound, on InsR, testing at 1 µM gave an inhibition of 0%. At Bcr–Abl1 kinase, this compound registered an inhibition at 0.5 µM of 37% and an inhibition at 10 µM of 37%. Besides, in [1], the inhibition at 100 µM was 93.4%. Also, the IC50 in series [2] came to 29.7 ± 1.19 µM.

On to `Cc1cn(-c2cc(NC(=O)c3ccc(Cn4cnc5c(N)ncnc54)cc3)cc(C(F)(F)F)c2)cn1` [Compound 12, 4-((6-Amino-9H-purin-9-yl)methyl)-N-(3-(4-methyl-1H-imidazol-1-yl)-5-(trifluoromethyl)phenyl) benzamide], for which the melting point is 268 to 270 °C. The same compound had an inhibition at 1 µM against HER4 of 0%. The inhibition at 1 µM on IGF1R is 0%. Besides, on PDGFRβ, the inhibition at 1 µM turned out to be 36%. For the same compound, the inhibition at 1 µM at EGFR worked out at 17%. The inhibition at 1 µM on PDGFRα is 22%. This compound also came in with an inhibition at 1 µM against KDR (VEGFR-2) of 0%. This compound displayed an inhibition at 1 µM against HER2 of 0%. On InsR, this compound yielded an inhibition at 1 µM of 0%. On Bcr–Abl1 kinase, the inhibition at 0.5 µM turned out to be 38% and at 10 µM the inhibition was 14%.

On to `CS(=O)(=O)CCNCc1ccc(-c2ccc3ncnc(Nc4ccc(OCc5cccc(F)c5)c(Cl)c4)c3c2)o1` [Lapatinib, lapatinib, reference compound], for which the inhibition at 1 µM was 94% against HER4; 0% on IGF1R; 7% at PDGFRβ; 4% against PDGFRα; 68% at HER2; 0% at InsR.

For `Cc1cn(-c2cc(NC(=O)c3ccc(Cn4cnc5c(N)nc(Cl)nc54)cc3)cc(C(F)(F)F)c2)cn1` [Compound 16, 4-((6-Amino-2-chloro-9H-purin-9-yl)methyl)-N-(3-(4-methyl-1H-imidazol-1-yl)-5-(trifluoromethyl)phenyl)benzamide], the inhibition at 1 µM at HER4 was 0%; on IGF1R it was 0%; at PDGFRβ, 6%; against EGFR, 13%; against PDGFRα it was 17%; against KDR (VEGFR-2), 12%. Further, the inhibition at 1 µM on HER2 and against InsR was 0% each time. Further, testing at 0.5 µM against Bcr–Abl1 kinase gave an inhibition of 15%. At Bcr–Abl1 kinase, this compound registered an inhibition at 10 µM of 36%. Testing at 100 µM in [1] gave an inhibition of 5.91%.

Consider `Nc1ncnc2c1ncn2Cc1ccc(C(=O)Nc2cccc(C(F)(F)F)c2)cc1` [Compound 9, 4-((6-Amino-9H-purin-9-yl)methyl)-N-(3-(trifluoromethyl)phenyl)benzamide], for which the inhibition at 1 µM at HER4 amounted to 0%; at IGF1R, 0%; against PDGFRβ, 36%; at EGFR, 11%; against PDGFRα, 45%; on KDR (VEGFR-2), 2%. The inhibition at 1 µM against HER2 and against InsR was 0% throughout. The same compound gave an inhibition at 0.5 µM against Bcr–Abl1 kinase of 39%. In addition, the inhibition at 10 µM at Bcr–Abl1 kinase came out at 34%. The same compound gave an inhibition at 100 µM in [1] of 56.8%.
